Test results published in patent US12441730B2, “PRMT5 inhibitors” (Merck Sharp & Dohme LLC, priority 2019, dated 2025).
Read-outs that look alike come from different tables or passages of the source.

Tests used:
[1] = molecular target: T1, Full-length (FL)-PRMT5-MEP50 enzyme complex (Homo sapiens, UniProt O14744); test: PRMT5-MEP50 Enzyme Methylation Assay (Version A); type: biochemical
T1 construct: Full-length (FL)-PRMT5-MEP50 enzyme complex (recombinant proteins from baculovirus-transfected Sf21 cells: FL-PRMT5; MW=73837 kDa and FL-MEP50; MW=38614); made in house; host or cells: baculovirus-transfected Sf21 cells
T1 sequence (O14744 whole entry): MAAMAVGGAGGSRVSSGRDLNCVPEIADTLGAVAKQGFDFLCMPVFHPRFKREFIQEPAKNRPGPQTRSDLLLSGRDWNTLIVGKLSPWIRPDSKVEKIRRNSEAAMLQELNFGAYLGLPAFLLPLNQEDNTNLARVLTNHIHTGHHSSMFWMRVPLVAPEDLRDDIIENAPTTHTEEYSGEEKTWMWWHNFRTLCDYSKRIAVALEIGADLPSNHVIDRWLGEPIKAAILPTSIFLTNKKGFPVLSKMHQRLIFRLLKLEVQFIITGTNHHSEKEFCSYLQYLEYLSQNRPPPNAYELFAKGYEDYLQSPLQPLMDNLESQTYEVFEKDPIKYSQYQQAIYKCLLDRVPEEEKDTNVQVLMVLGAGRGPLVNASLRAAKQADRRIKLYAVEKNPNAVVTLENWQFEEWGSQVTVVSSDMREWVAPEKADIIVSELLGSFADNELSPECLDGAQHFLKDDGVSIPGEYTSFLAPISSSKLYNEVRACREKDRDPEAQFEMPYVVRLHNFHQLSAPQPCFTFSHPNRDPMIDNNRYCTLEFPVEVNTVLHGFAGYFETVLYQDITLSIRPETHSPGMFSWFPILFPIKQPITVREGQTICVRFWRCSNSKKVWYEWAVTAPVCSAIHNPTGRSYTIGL
T1 sequence (Q9BQA1 whole entry partner): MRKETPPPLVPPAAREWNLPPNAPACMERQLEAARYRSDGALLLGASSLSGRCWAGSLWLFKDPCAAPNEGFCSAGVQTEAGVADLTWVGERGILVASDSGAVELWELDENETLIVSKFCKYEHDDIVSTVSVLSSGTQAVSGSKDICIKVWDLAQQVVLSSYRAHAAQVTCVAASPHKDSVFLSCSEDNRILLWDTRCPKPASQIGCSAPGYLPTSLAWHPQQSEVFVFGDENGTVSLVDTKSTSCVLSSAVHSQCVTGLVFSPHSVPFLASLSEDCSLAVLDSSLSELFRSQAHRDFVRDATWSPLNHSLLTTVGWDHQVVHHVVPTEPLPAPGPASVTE
Method: PRMT5-MEP50 Enzyme Methylation Assay (Version A)
PRMT5-MEP50 biochemical assay is a direct measurement of the methylation activity of the enzyme complex on a short peptide substrate derived from the N-terminus of H4 histone. Methylation experiment was performed with recombinant PRMT5-MEP50 protein complex. The assessment of inhibitory effect of small molecules was measured by the effectiveness of the compounds to inhibit this reaction (EC50).
In this assay, the potency (EC50) of each compound was determined from a twenty-point (1:2 serial dilution; top compound concentration of 100000 nM) titration curve using the following outlined procedure. To each well of a white ProxiPlus 384 well-plate, 100 nL of compound (1% DMSO in final assay volume of 10 μL) was dispensed, followed by the addition of 8 μL of 1× assay buffer (50 mM Bicine pH 8.0, 1 mM DTT, 0.004% Tween20, 0.01% BSA) containing 1.25 nM of Full-length (FL)-PRMT5-MEP50 enzyme complex (recombinant proteins from baculovirus-transfected Sf21 cells: FL-PRMT5; MW=[…] and FL-MEP50; MW=38614) and 1 μL of 150 μM S-(5′-Adenosyl)-L-Methionine Chloride (SAM). A plate were sealed and placed in a 37° C. humidified chamber for a 60 minutes pre-incubation with compound. Subsequently, each reaction was initiated by the addition of 1 μL 1× assay buffer containing 750 nM biotinylated H4R3(Me1) peptide. The final reaction in each well of 10 μL consists of 1.0 nM PRMT5-MEP50, 75 nM biotinylated-peptide, and 15 μM SAM. Methylation reactions were allowed to proceed for 150 minutes in a sealed plate at 37° C. Reactions were immediately quenched by the addition of 1 μL of 5% formic acid. A plate was then frozen and shipped to SAMDI™ Tech Inc. to determine the percent conversion from H4R3(Me1) to H4R3(Me2). Dose-response curves were generated by plotting percent effect (% product conversion; Y-axis) vs. Log 10 compound concentrations (X-axis). EC50 values were determined by non-linear regression according to models for either sigmoidal (4 parameters) or biphasic (7 parameters) dose-response curves.

[2] = test system: symmetric dimethylation of arginine (SDMA) of PRMT5 substrates in MCF-7 cells; test: PRMT5 Cell Target Engagement (TE) Assay; type: cell-based; details: 3 days treatment, SDMA high content imaging
Excerpt: PRMT5 Cell Target Engagement (TE) Assay
The PRMT5 TE assay is a biomarker assay for identifying compounds that inhibit symmetric dimethylation of arginine (SDMA) of PRMT5 substrates. The following substrates have been reported for PRMT5: histone H2A and H4 R3, Histone H3 R2, Histone H3 R8, spliceosome Sm proteins, ribosomal protein RPS10, p53, FEN1, nucleoplasmin, nucleolin, EGFR and EBNA. The assay focuses on detecting symmetrically dimethylated nuclear proteins using high content imaging technology. Detection of the expression of symmetrically dimethylated nuclear proteins is through a mixture of primary rabbit monoclonal antibodies to SDMA (CST 13222), which in turn recognized by an Alexafluor 488 dye-conjugated anti-rabbit IgG secondary antibody. The IN Cell Analyzer 2200 or Opera-Phenix measures nuclear Alexafluor 488 fluorescent dye intensity that is directly related to the level of expression of symmetrically dimethylated nuclear proteins at the single cell level. Nuclear AF488 dye intensities are compared to the mean value for DMSO treated cells (MIN) to report percent of inhibition for each compound-treated well.
In this assay, the cell potency (EC50) of each compound was determined from a ten point (1:3 serial dilution; top compound concentration of 10000 nM) titration curve using the following outlined procedure. Each well of a BD falcon collagen coated black/clear bottom 384-well plate was seeded with 4000 MCF-7 cells in 30 μl media and allowed to attach for 5 h. Media is ATCC-formulated Eagle's Minimum Essential Medium, Catalog No. 30-2003. To make the complete growth medium, the following components were added to the base medium: 0.01 mg/mL human recombinant insulin; fetal bovine serum to a final concentration of 10%. Additional 30 μl of media containing 2× compounds were added to each well. Cells were treated for 3 days in 37° C. CO2 incubator. On day 3, cells were fixed with Cytofix, permeabilized with 0.4% Triton-X-100/Cytofix, and washed with D-PBS without Ca/Mg. Cells were blocked with Licor Odessey blocking reagent for 1 h at room temperature, followed by incubation with anti-SDMA (1:1000) antibody at 4° C. overnight. 1° antibody was removed, followed by three washings with DPBS without Ca/Mg and 0.05% Tween20. Hoechst (5 μg/mL), Cell Mask deep stain (1:2000) and Alexa488-conjugated goat anti-rabbit IgG (2 μg/mL) was added for 1 h at room temperature. A final washing step (three washes) was performed before sealing plate for imaging on In Cell Analyzer 2200 or Opera-Phenix. Images from analyzer were uploaded to Columbus (at WP or BOS) for image analysis. IC50 values were determined by 4 parameters robust fit of percent fluorescence units vs. (Log10) compound concentrations.

[3] = second value of 7 parameter biphasic fit, read-out: Enzyme Methylation Assay Version A (EC50 2)
[4] = single EC50 = 4 parameter single site sigmoidal fit, EC50 1 = first value of 7 parameter biphasic fit, read-out: Enzyme Methylation Assay Version A (EC50 or EC50 1)

Structure (SMILES)	EC50 [1, 3] [nM]	EC50 [1, 4] [nM]	EC50 [2] [nM]	EC50 ([2]; Homo sapiens, MCF7, 72 h) [nM]
O=C(c1cn2cc(Br)nc(OC3CCOC3)c2n1)N1CC[C@]2(Cc3ccccc3CN2)[C@H](O)C1 (single isomer, unassigned) [Example 99, (6-bromo-8-(((S or R)(tetrahydrofuran-3-yl)oxy)imidazo[1,2-a]pyrazin-2-yl)((3R,3′R)-3′-hydroxy-1,4-dihydro-2H-spiro[isoquinoline-3,4′-piperidin]-1′-yl)methanone]	147	0.427	7.8	–
O=C(c1cn2cc(Br)nc(OCC3CCCO3)c2n1)N1CC[C@]2(Cc3ccccc3CN2)[C@H](O)C1 (single isomer, unassigned) [Example 100, (6-bromo-8-(((S or R)-tetrahydrofuran-2-yl)methoxy)imidazo[1,2-a]pyrazin-2-yl)((3R,3′R)-3′-hydroxy-1,4-dihydro-2H-spiro[isoquinoline-3,4′-piperidin]-1′-yl)methanone]	60.6	0.266	–	4.13
O=C(c1cn2cc(Br)nc(OCC3CCCO3)c2n1)N1CC[C@]2(Cc3ccccc3CN2)[C@H](O)C1 (single isomer, unassigned) [Example 101, (6-bromo-8-(((S or R)-tetrahydrofuran-2-yl)methoxy)imidazo[1,2-a]pyrazin-2-yl)((3R,3′R)-3′-hydroxy-1,4-dihydro-2H-spiro[isoquinoline-3,4′-piperidin]-1′-yl)methanone]	56.2	0.294	7.02	–
CC(n1ccc(C(=O)N2CC[C@]3(Cc4ccccc4CN3)[C@H](O)C2)cc1=O)C(F)(F)F (single isomer, unassigned) [Example 102, 4-((3R,3′R)-3′-hydroxy-2,4-dihydro-1H-spiro[isoquinoline-3,4′-piperidin]-1′-ylcarbonyl)-1-((S or R)-1,1,1-trifluoropropan-2-yl)pyridin-2(1H)-one]	34700	52.1	800	–
CC(n1ccc(C(=O)N2CC[C@]3(Cc4ccccc4CN3)[C@H](O)C2)cc1=O)C(F)(F)F (single isomer, unassigned) [Example 103, 4-((3R,3′R)-3′-hydroxy-2,4-dihydro-1H-spiro[isoquinoline-3,4′-piperidin]-1′-ylcarbonyl)-1-((R or S)1,1,1-trifluoropropan-2-yl)pyridin-2(1H)-one]	80000	171	2860	–
CCC1Oc2ccc(C(=O)N3CC[C@]4(Cc5ccccc5CN4)[C@H](O)C3)cc2NC1=O (single isomer, unassigned) [Example 104, (2R or 2S)-2-ethyl-6-((3R,3′R)-3′-hydroxy-1,4-dihydro-2H-spiro[isoquinoline-3,4′-piperidine]-1′-carbonyl)-2H-benzo[b][1,4]oxazin-3(4H)-one]	1410	1.44	83.1	–
CCC1Oc2ccc(C(=O)N3CC[C@]4(Cc5ccccc5CN4)[C@H](O)C3)cc2NC1=O (single isomer, unassigned) [Example 105, (2S or 2R)-2-ethyl-6-((3R,3′R)-3′-hydroxy-1,4-dihydro-2H-spiro[isoquinoline-3,4′-piperidine]-1′-carbonyl)-2H-benzo[b][1,4]oxazin-3(4H)-one]	146	0.519	4.39	–
O=C1Nc2cc(C(=O)N3CC[C@]4(Cc5ccccc5CN4)[C@H](O)C3)ccc2OC1C1CC1 (single isomer, unassigned) [Example 106, (2R or 2S)-2-cyclopropyl-6-((3R,3′R)-3′-hydroxy-1,4-dihydro-2H-spiro[isoquinoline-3,4′-piperidine]-1′-carbonyl)-2H-benzo[b][1,4]oxazin-3(4H)-one]	1010	0.43	36.8	–
O=C1Nc2cc(C(=O)N3CC[C@]4(Cc5ccccc5CN4)[C@H](O)C3)ccc2OC1C1CC1 (single isomer, unassigned) [Example 107, (2S or 2R)-2-cyclopropyl-6-((3R,3′R)-3′-hydroxy-1,4-dihydro-2H-spiro[isoquinoline-3,4′-piperidine]-1′-carbonyl)-2H-benzo[b][1,4]oxazin-3(4H)-one]	–	0.272	6.67	–
CC(O)c1cc(C(F)(F)F)cn2cc(C(=O)N3CC[C@]4(Cc5ccccc5CN4)[C@H](O)C3)nc12 (single isomer, unassigned) [Example 108]	207	4.25	–	12.9
CC(O)c1cc(C(F)(F)F)cn2cc(C(=O)N3CC[C@]4(Cc5ccccc5CN4)[C@H](O)C3)nc12 (single isomer, unassigned) [Example 109]	126	0.276	8.28	–
COC(C)c1cc(C)c2nc(C(=O)N3CC[C@]4(Cc5ccccc5CN4)[C@H](O)C3)cn2c1 (single isomer, unassigned) [Example 122]	144	0.304	5.56	–
COC(C)c1cc(C)c2nc(C(=O)N3CC[C@]4(Cc5ccccc5CN4)[C@H](O)C3)cn2c1 (single isomer, unassigned) [Example 123]	182	0.378	11.8	–
COC(C)c1cnc2nc(C(=O)N3CC[C@]4(Cc5ccccc5CN4)[C@H](O)C3)cn2c1 (single isomer, unassigned) [Example 136]	–	32.9	–	146
COC(C)c1cnc2nc(C(=O)N3CC[C@]4(Cc5ccccc5CN4)[C@H](O)C3)cn2c1 (single isomer, unassigned) [Example 137]	251	1.92	124	–
CN1CC(C2CC2)Cn2cc(C(=O)N3CC[C@]4(Cc5ccccc5CN4)[C@H](O)C3)nc21 (single isomer, unassigned) [Example 139]	767	8.19	212	–
CN1CC(C2CC2)Cn2cc(C(=O)N3CC[C@]4(Cc5ccccc5CN4)[C@H](O)C3)nc21 (single isomer, unassigned) [Example 142]	1860	29.5	620	–
COCCN1CC(C2CC2)Cn2cc(C(=O)N3CC[C@]4(Cc5ccccc5CN4)[C@H](O)C3)nc21 (single isomer, unassigned) [Example 143]	–	184	–	318
COCCN1CC(C2CC2)Cn2cc(C(=O)N3CC[C@]4(Cc5ccccc5CN4)[C@H](O)C3)nc21 (single isomer, unassigned) [Example 144]	–	65.9	173	–
